In EPA's CvTdb concentration-time database (doi:10.1093/toxsci/kfy020):

How the values were obtained:
Assay in all cases: concentration in plasma after dosing
[1] = test system: rat; conditions: dosed: Resmethrin, 0.8000000000 mg/kg, iv, male, Sprague-Dawley
[2] = test system: rat; conditions: dosed: Resmethrin, 4.0000000000 mg/kg, oral, male, Sprague-Dawley
[3] = test system: rat; conditions: dosed: Resmethrin, 0.8000000000 mg/kg, iv, male, Sprague-Dawley; remark: listed apart in the source
[4] = test system: rat; conditions: dosed: Resmethrin, 4.0000000000 mg/kg, oral, male, Sprague-Dawley; remark: listed apart in the source
[5] = test system: rat; conditions: dosed: Resmethrin, 4.0000000000 mg/kg, oral, male, Sprague-Dawley; remark: listed apart in the source
[6] = test system: rat; conditions: male, Sprague-Dawley
[7] = test system: rat; conditions: dosed: Bisphenol A, 0.6000000000 mg/kg, iv, male, Sprague-Dawley
[8] = test system: rat; conditions: dosed: Bisphenol A, 0.6000000000 mg/kg, iv, male, Sprague-Dawley; remark: listed apart in the source
[9] = test system: rat; conditions: dosed: Propamocarb hydrochloride, 5.0000000000 mg/kg, oral, male, Sprague-Dawley
[10] = test system: rat; conditions: dosed: Propamocarb hydrochloride, 1.0000000000 mg/kg, iv, male, Sprague-Dawley
[11] = test system: rat; conditions: dosed: Propamocarb hydrochloride, 1.0000000000 mg/kg, iv, male, Sprague-Dawley; remark: listed apart in the source
[12] = test system: rat; conditions: dosed: Propamocarb hydrochloride, 5.0000000000 mg/kg, oral, male, Sprague-Dawley; remark: listed apart in the source
[13] = test system: rat; conditions: dosed: Propamocarb hydrochloride, 5.0000000000 mg/kg, oral, male, Sprague-Dawley; remark: listed apart in the source
[14] = test system: rat; conditions: dosed: Dimethenamid, 5.0000000000 mg/kg, oral, male, Sprague-Dawley
[15] = test system: rat; conditions: dosed: Dimethenamid, 5.0000000000 mg/kg, oral, male, Sprague-Dawley; remark: listed apart in the source
[16] = test system: rat; conditions: dosed: Dimethenamid, 1.0000000000 mg/kg, iv, male, Sprague-Dawley
[17] = test system: rat; conditions: 8 h; dosed: Dimethenamid; 5.0000000000 mg/kg; oral; male; Sprague-Dawley
[18] = test system: rat; conditions: dosed: Dimethenamid, 1.0000000000 mg/kg, iv, male, Sprague-Dawley; remark: listed apart in the source
[19] = test system: rat; conditions: dosed: Simazine, 2.0000000000 mg/kg, oral, male, Sprague-Dawley
[20] = test system: rat; conditions: dosed: Simazine, 0.4000000000 mg/kg, iv, male, Sprague-Dawley
[21] = test system: rat; conditions: dosed: Simazine, 2.0000000000 mg/kg, oral, male, Sprague-Dawley; remark: listed apart in the source
[22] = test system: rat; conditions: dosed: Simazine, 0.4000000000 mg/kg, iv, male, Sprague-Dawley; remark: listed apart in the source
[23] = test system: rat; conditions: dosed: Simazine, 0.4000000000 mg/kg, iv, male, Sprague-Dawley; remark: listed apart in the source
[24] = test system: rat; conditions: dosed: Simazine, 2.0000000000 mg/kg, oral, male, Sprague-Dawley; remark: listed apart in the source

CC(C)=CC1C(C(=O)OCc2coc(Cc3ccccc3)c2)C1(C)C (stereo unspecified) [Resmethrin]
concentration in plasma
Conditions	0.25 h	0.5 h	1 h	2 h	4 h	5 min	8 h	10 min	12 h
[1]	–	9.1 ng/mL	4.1 ng/mL	1 ng/mL	–	52.7 ng/mL	–	25 ng/mL	–
[2]	0.0134 µg/mL	0.0118 µg/mL	0.0441 µg/mL	0.0124 µg/mL	0.0056 µg/mL	–	0.004 µg/mL	–	–
[3]	–	0.0121 µg/mL	0.0007 µg/mL	0.0056 µg/mL	–	0.0525 µg/mL	–	0.0206 µg/mL	–
[4]	7 ng/mL	10.7 ng/mL	39 ng/mL	12.8 ng/mL	2.3 ng/mL	–	4.7 ng/mL	–	1.8 ng/mL
[5]	0.0174 µg/mL	0.0158 µg/mL	0.0177 µg/mL	0.0106 µg/mL	0.0042 µg/mL	–	0.0046 µg/mL	–	–

concentration in plasma [ng/mL], [6], dosed: Resmethrin
Conditions	0.25 h	0.5 h	1 h	2 h	4 h	5 min	8 h	10 min
0.8000000000 mg/kg, iv	–	13.9	1.6	8.1	–	72.9	–	30.4
4.0000000000 mg/kg, oral	12.6	37.2	32.8	13.5	13.7	–	6.1	–

CC(C)(c1ccc(O)cc1)c1ccc(O)cc1 [Bisphenol A]
concentration in plasma [µg/mL]
Conditions	0.5 h	1 h	5 min	10 min
[7]	0.0943	0.0307	0.31	0.151
[8]	0.0605	0.0345	0.299	0.189

[6], dosed: Bisphenol A, 0.6000000000 mg/kg, iv
Conditions	concentration in plasma [ng/mL]
0.5 h	85.6
1 h	29.2
5 min	392
10 min	302

CCCOC(=O)NCCCN(C)C.Cl [Propamocarb hydrochloride]
concentration in plasma
Conditions	[9]	[10]	[11]	[12]	[13]
0.25 h	2.1 ng/mL	0.0693 µg/mL	0.0621 µg/mL	1100 pg/mL	3.5 ng/mL
0.5 h	1.5 ng/mL	0.0353 µg/mL	0.0255 µg/mL	700 pg/mL	1.7 ng/mL
1 h	0.43 ng/mL	0.011 µg/mL	0.0087 µg/mL	100 pg/mL	0.4 ng/mL
2 h	–	0.0017 µg/mL	0.0005 µg/mL	–	–
5 min	–	0.108 µg/mL	0.103 µg/mL	–	–

concentration in plasma [ng/mL], [6], dosed: Propamocarb hydrochloride
Conditions	0.25 h	0.5 h	1 h	2 h	5 min
1.0000000000 mg/kg, iv	57.8	26.2	9.6	1	134
5.0000000000 mg/kg, oral	8.1	4.9	1.6	–	–

COCC(C)N(C(=O)CCl)c1c(C)csc1C (stereo unspecified) [Dimethenamid]
concentration in plasma
Conditions	[14]	[15]	[16]	[18]
0.25 h	1800 pg/mL	600 pg/mL	–	–
0.5 h	1400 pg/mL	500 pg/mL	0.0209 µg/mL	0.0149 µg/mL
1 h	600 pg/mL	–	0.0074 µg/mL	0.0062 µg/mL
2 h	700 pg/mL	600 pg/mL	0.0021 µg/mL	0.0019 µg/mL
4 h	1000 pg/mL	600 pg/mL	0.0008 µg/mL	0.0006 µg/mL
5 min	–	–	0.193 µg/mL	0.0919 µg/mL
8 h	500 pg/mL	200 pg/mL	–	–
10 min	–	–	0.111 µg/mL	0.0381 µg/mL
24 h	200 pg/mL	–	–	–
48 h	300 pg/mL	–	–	–
72 h	300 pg/mL	–	–	–

Conditions	concentration in plasma [µg/mL]
[17]	0.287

[6], dosed: Dimethenamid
Conditions	concentration in plasma [ng/mL]
0.25 h, 5.0000000000 mg/kg, oral	5.3
0.5 h, 1.0000000000 mg/kg, iv	19.3
0.5 h, 5.0000000000 mg/kg, oral	2
1 h, 1.0000000000 mg/kg, iv	7
1 h, 5.0000000000 mg/kg, oral	1.3
2 h, 1.0000000000 mg/kg, iv	1.4
2 h, 5.0000000000 mg/kg, oral	1.9
4 h, 1.0000000000 mg/kg, iv	0.8
4 h, 5.0000000000 mg/kg, oral	1.2
5 min, 1.0000000000 mg/kg, iv	115
8 h, 1.0000000000 mg/kg, iv	0.3
8 h, 5.0000000000 mg/kg, oral	0.5
10 min, 1.0000000000 mg/kg, iv	60.7
12 h, 5.0000000000 mg/kg, oral	0.3
24 h, 5.0000000000 mg/kg, oral	0.3
48 h, 5.0000000000 mg/kg, oral	0.3
72 h, 5.0000000000 mg/kg, oral	0.5

CCNc1nc(Cl)nc(NCC)n1 [Simazine]
concentration in plasma
Conditions	0.25 h	0.5 h	1 h	2 h	4 h	5 min	10 min
[19]	0.0685 µg/mL	0.0232 µg/mL	0.005 µg/mL	0.0012 µg/mL	–	–	–
[20]	–	0.0232 µg/mL	0.0045 µg/mL	–	–	0.0637 µg/mL	0.0604 µg/mL
[21]	6.9 ng/mL	5 ng/mL	1 ng/mL	4.6 ng/mL	1 ng/mL	–	–
[22]	–	0.0466 µg/mL	0.0097 µg/mL	0.0011 µg/mL	–	0.052 µg/mL	0.148 µg/mL
[23]	–	0.0348 µg/mL	0.0053 µg/mL	–	–	0.127 µg/mL	0.0955 µg/mL
[24]	10.5 ng/mL	3.7 ng/mL	1.3 ng/mL	2.6 ng/mL	1.5 ng/mL	–	–

concentration in plasma [ng/mL], [6], dosed: Simazine
Conditions	0.25 h	0.5 h	1 h	5 min	10 min
0.4000000000 mg/kg, iv	–	43	3.7	91.6	101
2.0000000000 mg/kg, oral	6.9	2.4	–	–	–
